Data taken from patent US7157256B2, “Method for producing para-hydroxystyrene and other multifunctional aromatic compounds using two-phase extractive fermentation” (E. I. du Pont de Nemours and Company, priority 2003, dated 2007).
“And” between values parts separate entries of the source, which are not always exact repeats. Identical values can stand only once. “Also recorded” adds a separate entry of the source.

Key:
E. coli TY1 (DGL430) = assay: Toxicity testing of organic solvents toward E. coli using agar cultures; assay type: cell-based; conditions: for % CFU 1 Sample 2 / % CFU Sample 1 / % CFU Sample 3: 5 mL solvent on inoculated LB agar plate, 30° C., CFU as percentage of control plates; for toxicity to E. coli in words: agar plate study
Method: This study was done using E. coli TY1 (DGL430), as described in Example 1. A stock culture of this strain was prepared in 50% glycerol and stored at −20° C. This stock culture (10 μL) was used to inoculate a 14 mL Falcon™ tube (BD Biosciences, Bedford, Mass.) containing 5 mL of LB medium, consisting of Bacto-tryptone (10 g/L), Bacto-yeast extract (5 g/L), and NaCL (10 g/L) adjusted to pH 7.5 with NaOH, and supplemented with tetracycline (10 μg/mL). This culture was incubated at 34° C. and 250 rpm overnight in an incubator shaker until an OD600 of between 1.0 and 2.0 was obtained. Dilutions of this culture were spread onto LB agar plates. The appropriate dilution was determined by experimentation to obtain between 100 to 200 colonies per plate. The solvents (5 mL) were filtered through a 0.2 μm filter onto the inoculated agar plates. All the solvents were tested in triplicate.
The plates were incubated overnight at 30° C. in a vented incubator located in a chemical fume hood. The colonies formed were counted after 24 and 48 h. The colony forming units (CFUs) obtained with each solvent were compared to those of the control plates and plotted in FIG. 1 as a percentage versus the log P value for the solvent (P values obtained from Hansch et al., Exploring QSAR: Hydrophobic, Electronic and Steric Constants, American Chemical Society, Washington, D.C., 1995). […] The error bars in the figure represent the range of the data. Cell growth on the agar medium was characterized by the presence of both distinct and non-distinct colony formations, which affected the precision of the colony counts. In the presence of some of the solvents tested, growth continued between 24 and 48 h, while with other solvents, no further growth was observed after 24 h.

[1] = P values obtained from Hansch et al. 1995; cited from earlier work
E. coli strain BNT511 = assay: Effect of organic solvents on the growth of E. coli, shake flasks; assay type: cell-based; conditions: for OD 550: 10 mL solvent in 30 mL medium
Source text: E. coli strain BNT511 was used in this study. This strain is a tyrosine overproducing strain derived from E. coli strain NST 74 (ATCC No. 31884), which was obtained from the American Type Culture Collection (ATCC) (Manassas, Va.). Strain BNT511 is deposited with the American Type Culture Collection under the terms of the Budapest Treaty on the International Recognition of the Deposit of Microorganisms for the Purposes of Patent Procedure and has been assigned a depository designation of PTA-4314. E. coli strain BNT511 was obtained as follows. A culture of E. coli strain NST 74 was grown overnight at 37° C. in three milliliters of M9 medium, prepared as follows. A solution of M9 salts buffer consisting of KH2PO4 (3 g/L), Na2HPO4 (6 g/L), NaCl (0.5 g/L), and NH4Cl (1 g/L), was prepared and the pH was adjusted to 7.4. This M9 salts buffer was autoclaved and then the following solutions, each sterilized separately by filtration (glucose) or autoclaving, were added to give the concentrations given in parentheses MgSO4 (0.24 g/L), glucose (0.2%), CaCl2 (0.011 g/L), and yeast extract (1 g/L). After growth, the culture was diluted by a factor of 10^3 to 10^6 in M9 salts buffer. Then, 100 μL of each dilution was plated on M9+1% glucose agar containing […] of 3-fluorotyrosine and the plates were incubated at 37° C. After 18 h, growth was observed only on the plate not containing 3-fluorotyrosine. Plates containing 3-fluorotyrosine were incubated an additional 24 h, after which time, several isolates were identified. One NST 74-derived isolate was obtained from each of the 150 and 450 mg/mL 3-fluorotyrosine plates. Individual isolates were propagated on M9+1% glucose agar containing 0, 50, 150, or 250 mg/mL 3-fluorotyrosine. One of these two isolates was designated as BNT511.
E. coli strain BNT511 was grown in a medium containing KH2PO4 (0.15 g/L), Na2HPO4 (0.35 g/L), (NH4)2 SO4 (3 g/L), MgSO4.7H2O (0.3 g/L), yeast extract (0.5 g/L), MOPS (15.6 g/L), and glucose (10 g/L), adjusted to pH 6.8. A seed culture, taken from an active culture that grew in a fermentor and was diluted to 0.3 OD at 550 nm, was used to inoculate 30 mL of culture medium in 250 mL baffled flasks. Ten milliliters of the solvent to be tested, either 1-undecanol (98%, obtained from Aldrich) or 2-undecanone (98%, obtained from Aldrich), was added to the flask and the flasks were incubated at 35° C. and 300 rpm for 22 h in an incubator shaker. A flask without an organic solvent added served as the control. This experiment was run in duplicate. Samples of the aqueous culture media were removed at various times and the pH and the OD550 were measured. As shown by the results given in Table 2, the presence of the organic solvents tested had no significant effect on the growth of E. coli. However, the results obtained with 2-undecanone in these studies were not consistent. […] We believe that this variability was caused by variations in the purity of this solvent.

[2] = Extraction of CA into organic phase, two-phase flask fermentation; assay type: physicochemical
Method: The strain used in this study was E. coli WWQ51.1, as described in Example 3. The conditions were similar to those described in Example 3. Eight test cultures were inoculated; six contained 20 mL of 2-undecanone, the other two contained 20 mL of 1-undecanol. A 10% w/v solution of pHS in propylene glycol (0.5 mL), obtained from Sigma-Aldrich, Milwaukee, Wis., was added to two of the cultures containing 2-undecanone, as specified in Table 7.
The cultures were incubated in 250 mL baffled flasks at 35° C. and 300 rpm for 24 h in an incubator shaker. After this time, a sample of the aqueous phase was withdrawn and the pH, OD550, and the concentration of the fermentation products were measured, as described supra. The organic phase was also sampled and the concentration of CA and pHS were determined using HPLC, as described supra.
In this study, the pH decreased to low values and a significant amount of CA was extracted into both organic solvents tested. The amount of pHS produced was low, probably because of its poor stability at low pH. As shown by the data in Table 9, the amount of CA extracted into the organic phase was very dependent on the pH of the medium. This pH dependence results because the fully protonated species is the form extracted into the organic phase. The ionized acid form is very water-soluble and is not extracted into the organic phase. Therefore, the extractive fermentation of acidic compounds such as CA and pHCA is favored at low pH, where the acid exists primarily in the unionized form.

[3] = 2 h, 35° C., 300 rpm, duplicate flasks

Row | SMILES | % CFU 1 Sample 2 (E. coli TY1 (DGL430)) [%] | % CFU Sample 1 (E. coli TY1 (DGL430)) [%] | % CFU Sample 3 (E. coli TY1 (DGL430)) [%] | Log P [1] | toxicity to E. coli in words (E. coli TY1 (DGL430)) | other results
1 | CCCCC(=O)c1ccccc1 [1-Phenyl-1-pentanone] | 62 | 33 | 0 | 3.33 |  | 
2 | CCCCCCCCCCCO [1-undecanol] |  |  |  |  |  | OD 550 (E. coli strain BNT511; [3]): 1.428 and 1.456; OD 550 (E. coli strain BNT511; 4.2 h): 1.96 and 2.14; OD 550 (E. coli strain BNT511; 6 h): 6.02 and 6.7; OD 550 (E. coli strain BNT511; 22 h): 19.1 and 15.7
3 | c1ccc(COCc2ccccc2)cc1 [Dibenzyl ether] | 5 | 1.5 | 0 | 3.1 |  | 
4 | CCCOC(=O)c1ccccc1 [Propyl benzoate] | 26 | 9 | 0.9 |  |  | 
5 | CCCCCCCCCC(=O)OC [Methyl decanoate] | 109 | 73 | 44 | 4.41 | relatively nontoxic to E. coli | 
6 | CCCCCCCCCC(C)=O [2-undecanone] | 11 | 11 | 11 | 3.91 | significantly inhibit growth | growth inhibition / toxicity to E. coli of some lots (E. coli strain BNT511; 2-undecanone from some suppliers and lots, ascribed to impurities): found to inhibit growth; also recorded: toxic to E. coli due to impurities; OD 550 (E. coli strain BNT511; [3]): 1.004; OD 550 (E. coli strain BNT511; 4.2 h): 1.88; OD 550 (E. coli strain BNT511; 6 h): 6.3 and 6.28; OD 550 (E. coli strain BNT511; 22 h): 15.2 and 12.3
7 | CCCCCCCCCCCC(C)=O [2-Tridecanone] | 115 | 100 | 87 | 4.95 | relatively nontoxic to E. coli | 
8 | O=C(O)C=Cc1ccccc1 [CA, cinnamic acid] |  |  |  |  |  | CA Org/CA Aq ([2]; Flask 1, 2-undecanone 20 mL/flask, pH 5.38, 24 h): 3.55; CA Org/CA Aq ([2]; Flask 2, 2-undecanone, pH 4.5): 17.00; CA Org/CA Aq ([2]; Flask 3, 2-undecanone, pH 5.5): 1.43; CA Org/CA Aq ([2]; Flask 4, 2-undecanone, pH 5.4): 2.54; CA Org/CA Aq ([2]; Flask 5, 2-undecanone, pH 4.8): 8.08; CA Org/CA Aq ([2]; Flask 6, 2-undecanone, pH 5.7): 1.10; CA Org/CA Aq ([2]; Flask 7, 1-undecanol, pH 5.7): 2.10; CA Org/CA Aq ([2]; Flask 8, 1-undecanol, pH 5.71): 2.15
9 | CCCCCCCCC(C)=O [2-Decanone] | 0 | 0 | 0 | 3.39 |  | 
10 | CC(C)CCOCCC(C)C [Diisopentyl ether] | 39 | 13 | 0 | 3.96 |  | 
